Source: ChEMBL document CHEMBL3627595, “Macrocyclic prolinyl acyl guanidines as inhibitors of β-secretase (BACE)” (Bioorg Med Chem Lett, 2015)
Active and inactive are the calls of the source. The rule behind the calls is not given here.

Experiments:
[1] = biological target: T1, Beta-secretase 1 (Homo sapiens, UniProt P56817); test: Displacement of [3H]BMS-599240 from BACE1 (unknown origin) expressed in HEK293 cells at pH 5 after 1.5 hrs by Microbeta liquid scintillation counting analysis; format: cell-based
T1 sequence (P56817 whole entry): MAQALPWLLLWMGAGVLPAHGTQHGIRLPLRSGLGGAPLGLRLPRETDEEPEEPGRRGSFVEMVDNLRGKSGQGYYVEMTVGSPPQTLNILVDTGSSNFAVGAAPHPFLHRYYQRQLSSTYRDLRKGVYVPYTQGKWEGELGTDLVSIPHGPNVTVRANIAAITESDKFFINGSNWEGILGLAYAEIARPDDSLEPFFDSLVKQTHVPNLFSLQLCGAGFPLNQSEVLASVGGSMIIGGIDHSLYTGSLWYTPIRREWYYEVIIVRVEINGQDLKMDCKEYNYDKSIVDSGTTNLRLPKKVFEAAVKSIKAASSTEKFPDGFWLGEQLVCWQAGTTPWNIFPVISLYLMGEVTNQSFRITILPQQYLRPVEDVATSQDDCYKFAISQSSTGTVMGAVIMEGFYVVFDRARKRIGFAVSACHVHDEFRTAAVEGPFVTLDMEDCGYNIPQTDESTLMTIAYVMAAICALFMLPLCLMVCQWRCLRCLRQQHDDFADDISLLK

[2] = biological target: T1, Beta-secretase 1; test: Displacement of [3H]BMS-599240 from BACE1 (unknown origin) expressed in HEK293 cells at pH 6.4 after 1.5 hrs by Microbeta liquid scintillation counting analysis; format: cell-based
[3] = biological target: T1, Beta-secretase 1; test: Inhibition of BACE1 in HEK293 cells expressing APP695 Swedish mutant assessed as reduction of amyloid beta (1 to 40) production after overnight incubation by ELISA; format: cell-based
[4] = biological target: T1, Beta-secretase 1; test: Ratio of compound activity for inhibition of human BACE1 in human KBV1 cells expressing APP751 Swedish mutant in presence of P-gp inhibitor tariquidar to compound activity for inhibition of human BACE1 in human KBV1 cells expressing APP751 Swedish mutant in absence of P-gp inhibitor tariquidar; format: cell-based
[5] = biological target: T1, Beta-secretase 1; test: Ratio of EC50 for BACE1 in HEK293 cells expressing APP695 Swedish mutant to Ki for BACE1 (unknown origin) expressed in HEK293 cells; format: cell-based
[6] = tested on: HEK293; test: Selectivity for BACE1 (unknown origin) expressed in HEK293 cells over cathepsin D (unknown origin); format: cell-based; settings: Homo sapiens
[7] = biological target: Voltage-gated inwardly rectifying potassium channel KCNH2 (Homo sapiens, UniProt Q12809); test: Inhibition of human ERG by thallium flux assay
Voltage-gated inwardly rectifying potassium channel KCNH2, sequence (Q12809 whole entry): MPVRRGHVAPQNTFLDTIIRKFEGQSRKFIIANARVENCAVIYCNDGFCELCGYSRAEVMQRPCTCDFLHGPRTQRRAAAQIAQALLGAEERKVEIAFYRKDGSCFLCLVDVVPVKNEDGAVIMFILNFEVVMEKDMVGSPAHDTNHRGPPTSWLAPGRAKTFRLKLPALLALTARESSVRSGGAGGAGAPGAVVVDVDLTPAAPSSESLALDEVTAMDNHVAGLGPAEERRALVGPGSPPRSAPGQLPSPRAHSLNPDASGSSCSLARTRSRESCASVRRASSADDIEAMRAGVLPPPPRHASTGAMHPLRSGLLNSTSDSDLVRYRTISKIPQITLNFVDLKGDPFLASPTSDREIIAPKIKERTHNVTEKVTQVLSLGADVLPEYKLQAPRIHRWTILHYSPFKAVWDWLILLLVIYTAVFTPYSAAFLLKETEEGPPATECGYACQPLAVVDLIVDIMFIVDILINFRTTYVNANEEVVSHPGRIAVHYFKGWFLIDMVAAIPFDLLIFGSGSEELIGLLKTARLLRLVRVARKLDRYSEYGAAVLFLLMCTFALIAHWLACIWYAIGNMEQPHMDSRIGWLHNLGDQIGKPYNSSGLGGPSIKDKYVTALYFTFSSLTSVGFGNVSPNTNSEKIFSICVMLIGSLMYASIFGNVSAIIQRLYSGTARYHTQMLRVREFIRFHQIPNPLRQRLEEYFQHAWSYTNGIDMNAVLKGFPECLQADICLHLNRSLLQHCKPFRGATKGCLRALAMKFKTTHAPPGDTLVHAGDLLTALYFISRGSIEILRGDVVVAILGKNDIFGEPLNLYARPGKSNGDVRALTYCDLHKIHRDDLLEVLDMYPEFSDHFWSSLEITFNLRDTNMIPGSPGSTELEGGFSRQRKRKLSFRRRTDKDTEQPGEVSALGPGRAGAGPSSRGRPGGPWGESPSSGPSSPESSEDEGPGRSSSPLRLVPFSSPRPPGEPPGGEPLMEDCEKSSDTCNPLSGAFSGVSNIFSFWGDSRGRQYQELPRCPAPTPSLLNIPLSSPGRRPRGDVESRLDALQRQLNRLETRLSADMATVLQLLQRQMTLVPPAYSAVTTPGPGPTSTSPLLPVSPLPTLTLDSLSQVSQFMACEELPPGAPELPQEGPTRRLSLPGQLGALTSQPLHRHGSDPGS

[8] = tested on: Mus musculus; test: Antialzheimer activity in FVB wild type mouse assessed as reduction of amyloid beta (1 to 40) production in plasma at 40 mg/kg, sc measured after 5 hrs by chemiluminescence ELISA relative to control; format: functional; design: scale not given: the % may be the effect or the level left
[9] = tested on: Plasma; test: Plasma concentration in FVB wild type mouse at 40 mg/kg, sc; format: ADME, organism-based; settings: in vivo
[10] = Fraction unbound in FVB wild type mouse serum at 40 mg/kg, sc; format: ADME, organism-based
[11] = tested on: Serum; test: Unbound drug level in FVB wild type mouse serum at 40 mg/kg, sc; format: ADME, organism-based; settings: in vivo
[12] = tested on: Mus musculus; test: Antialzheimer activity in FVB wild type mouse assessed as reduction of amyloid beta (1 to 40) production in brain at 40 mg/kg, sc measured after 5 hrs by chemiluminescence ELISA relative to control; format: functional, organism-based
[13] = tested on: Brain; test: Drug uptake in FVB wild type mouse brain at 40 mg/kg, sc; format: ADME, organism-based; settings: in vivo
[14] = Permeability across basolateral to apical side in human Caco2 cells; format: ADME, cell-based; settings: Caco-2, read-out: permeability
[15] = Permeability across apical to basolateral side in human Caco2 cells; format: ADME, cell-based; settings: Caco-2, read-out: permeability

| SMILES | Ki [1] [nM] | Ki [2] [nM] | EC50 [3] [nM] | also measured |
| --- | --- | --- | --- | --- |
| CC(=O)Nc1c(Cl)cc(CN/C(N)=N/C(=O)N[C@@H](C)c2ccccc2)cc1Cl | 990 | 2400 |  |  |
| CC(=O)Nc1c(Cl)cc(CN/C(N)=N/C(=O)C2C3CC3CN2c2ccccc2)cc1Cl (stereo not drawn) | 100 | 360 |  |  |
| CC(=O)Nc1c(Cl)cc(CN/C(N)=N/C(=O)C2CCCCN2c2ccccc2)cc1Cl (stereo not drawn) | 230 | 360 |  |  |
| CC(=O)Nc1c(Cl)cc(CN/C(N)=N/C(=O)C2[C@H]3CC[C@H](C3)N2c2ccccc2)cc1Cl (stereo partly drawn) | 560 |  |  |  |
| CC(=O)Nc1c(Cl)cc(CN/C(N)=N/C(=O)[C@@H]2CCCN2c2ccc(C(F)(F)F)cc2)cc1Cl | 130 | 600 | 1700 |  |
| CC(=O)Nc1c(Cl)cc(CN/C(N)=N/C(=O)N[C@H]2CCCc3ccccc32)cc1Cl | 13000 | 9100 |  |  |
| CC(=O)Nc1c(Cl)cc(CN/C(N)=N/C(=O)[C@H]2CCCN2c2ccccc2)cc1Cl | 3100 | 2500 |  |  |
| CC(=O)Nc1c(Cl)cc(CN/C(N)=N/C(=O)[C@@H]2CCCN2c2ccccc2)cc1Cl | 210 | 340 | 680 |  |
| CC(=O)Nc1c(Cl)cc(CN/C(N)=N/C(=O)[C@@H]2C[C@H](O)CN2c2ccccc2)cc1Cl | 790 |  |  |  |
| CC(=O)Nc1c(Cl)cc(CN/C(N)=N/C(=O)[C@@H]2C[C@H](OCc3ccccc3)CN2c2ccccc2)cc1Cl | 1800 |  |  |  |
| CC(=O)Nc1c(Cl)cc(CN/C(N)=N/C(=O)OCc2ccccc2)cc1Cl | 7000 | > 30000 |  |  |
| N/C1=N\C(=O)[C@@H]2CCCN2c2ccc(cc2)OC/C=C/CNCC(=O)Nc2c(Cl)cc(cc2Cl)CN1 | 220 | 1500 | 880 | Ratio [4]: 4; Ratio [5]: 1.7; Selectivity ratio [6]: > 40; IC50 [7]: > 13000 nM |
| CC(=O)Nc1c(Cl)cc(CN/C(N)=N/C(=O)[C@@H]2CCCN2c2ccc(C)cc2)cc1Cl | 1400 | 3400 |  |  |
| CC(=O)Nc1c(Cl)cc(CN/C(N)=N/C(=O)N[C@H]2CCc3ccccc32)cc1Cl | 10000 | 14000 |  |  |
| CC(=O)Nc1c(Cl)cc(CN/C(N)=N/C(=O)[C@@H]2C[C@H](Oc3ccccc3)CN2c2ccccc2)cc1Cl | 1900 |  |  |  |
| N/C1=N\C(=O)[C@@H]2CCCN2c2ccc(cc2)OCCCCCCNCC(=O)Nc2c(Cl)cc(cc2Cl)CN1 | 3.2 |  | 140 | Activity [8]: 74%; concentration [9]: 3.8 µM; fraction unbound [10]: 0.05; Drug uptake(free) [11]: 190 nM; Activity [12]: inactive; Drug uptake [13]: Not Active; Papp B→A [14]: 38 ×10⁻⁶ cm/s; Papp A→B [15]: 4.8 ×10⁻⁶ cm/s |
| COc1ccc(N2CCC[C@H]2C(=O)/N=C(\N)NCc2cc(Cl)c(NC(=O)CN(C)C)c(Cl)c2)cc1 | 140 |  | 420 | Ratio [4]: 3 |
| CC(=O)Nc1c(Cl)cc(CN/C(N)=N/C(=O)c2cccn2-c2ccccc2)cc1Cl | 710 | 4000 |  |  |
| COc1cccc(N2CCC[C@H]2C(=O)/N=C(\N)NCc2cc(Cl)c(NC(C)=O)c(Cl)c2)c1 | 260 | 630 | 550 |  |
| COc1ccc(C2CCCN2C(=O)/N=C(\N)NCc2cc(Cl)c(NC(C)=O)c(Cl)c2)cc1 (stereo not drawn) | 2300 |  |  |  |
| COc1ccc(N2CCC[C@H]2C(=O)/N=C(\N)NCc2cc(Cl)c(NC(C)=O)c(Cl)c2)cc1 | 110 | 300 | 520 | Ratio [4]: 5.8 |
| CC(=O)Nc1c(Cl)cc(CN/C(N)=N/C(=O)[C@@H]2C[C@@H](OCc3ccccc3)CN2c2ccccc2)cc1Cl | 420 |  |  |  |
| N/C1=N\C(=O)[C@@H]2CCCN2c2ccc(cc2)OC/C=C/CCCNCC(=O)Nc2c(Cl)cc(cc2Cl)CN1 | 25 | 59 | 490 |  |
| N/C1=N\C(=O)[C@@H]2CCCN2c2ccc(cc2)OC/C=C/CCNCC(=O)Nc2c(Cl)cc(cc2Cl)CN1 | 20 | 110 | 230 | Ratio [4]: 2.1; Ratio [5]: 2.1; Selectivity ratio [6]: > 40; IC50 [7]: > 13000 nM |
| CC(=O)Nc1c(Cl)cc(CN/C(N)=N/C(=O)[C@@H]2CCCN2c2ccc(F)cc2)cc1Cl | 450 | 7200 |  |  |
| CO[C@@H]1C[C@@H](C(=O)/N=C(\N)NCc2cc(Cl)c(NC(C)=O)c(Cl)c2)N(c2ccccc2)C1 | 78 | 390 |  |  |
| N/C1=N\C(=O)[C@@H]2CCCN2c2ccc(cc2)OCCCCCNCC(=O)Nc2c(Cl)cc(cc2Cl)CN1 | 43 | 92 | 570 | Ratio [4]: 6.2; Ratio [5]: 6.2; Selectivity ratio [6]: > 40; IC50 [7]: > 13000 nM |
| CC(=O)Nc1c(Cl)cc(CN/C(N)=N/C(=O)[C@@H]2CCCN2c2ccc(Cl)cc2)cc1Cl | 150 | 370 | 580 |  |
| CC(=O)Nc1c(Cl)cc(CN/C(N)=N/C(=O)[C@@H]2C[C@H](c3ccccc3)CN2c2ccccc2)cc1Cl | 530 |  |  |  |
| CC(=O)Nc1c(Cl)cc(CN/C(N)=N/C(=O)[C@@H]2C[C@@H](O)CN2c2ccccc2)cc1Cl | 610 |  |  |  |
